biological target: T1, IGFR kinase (Homo sapiens, UniProt P08069); assay: Enzyme assay (c), IGFR kinase, Caliper LabChip; type: biochemical; settings: 30 nM IGFR kinase, 6 uM ATP, 3 uM peptide mix; read-out: IGFR IC50
T1 construct: purchased Millipore
T1 sequence (P08069 31-1367): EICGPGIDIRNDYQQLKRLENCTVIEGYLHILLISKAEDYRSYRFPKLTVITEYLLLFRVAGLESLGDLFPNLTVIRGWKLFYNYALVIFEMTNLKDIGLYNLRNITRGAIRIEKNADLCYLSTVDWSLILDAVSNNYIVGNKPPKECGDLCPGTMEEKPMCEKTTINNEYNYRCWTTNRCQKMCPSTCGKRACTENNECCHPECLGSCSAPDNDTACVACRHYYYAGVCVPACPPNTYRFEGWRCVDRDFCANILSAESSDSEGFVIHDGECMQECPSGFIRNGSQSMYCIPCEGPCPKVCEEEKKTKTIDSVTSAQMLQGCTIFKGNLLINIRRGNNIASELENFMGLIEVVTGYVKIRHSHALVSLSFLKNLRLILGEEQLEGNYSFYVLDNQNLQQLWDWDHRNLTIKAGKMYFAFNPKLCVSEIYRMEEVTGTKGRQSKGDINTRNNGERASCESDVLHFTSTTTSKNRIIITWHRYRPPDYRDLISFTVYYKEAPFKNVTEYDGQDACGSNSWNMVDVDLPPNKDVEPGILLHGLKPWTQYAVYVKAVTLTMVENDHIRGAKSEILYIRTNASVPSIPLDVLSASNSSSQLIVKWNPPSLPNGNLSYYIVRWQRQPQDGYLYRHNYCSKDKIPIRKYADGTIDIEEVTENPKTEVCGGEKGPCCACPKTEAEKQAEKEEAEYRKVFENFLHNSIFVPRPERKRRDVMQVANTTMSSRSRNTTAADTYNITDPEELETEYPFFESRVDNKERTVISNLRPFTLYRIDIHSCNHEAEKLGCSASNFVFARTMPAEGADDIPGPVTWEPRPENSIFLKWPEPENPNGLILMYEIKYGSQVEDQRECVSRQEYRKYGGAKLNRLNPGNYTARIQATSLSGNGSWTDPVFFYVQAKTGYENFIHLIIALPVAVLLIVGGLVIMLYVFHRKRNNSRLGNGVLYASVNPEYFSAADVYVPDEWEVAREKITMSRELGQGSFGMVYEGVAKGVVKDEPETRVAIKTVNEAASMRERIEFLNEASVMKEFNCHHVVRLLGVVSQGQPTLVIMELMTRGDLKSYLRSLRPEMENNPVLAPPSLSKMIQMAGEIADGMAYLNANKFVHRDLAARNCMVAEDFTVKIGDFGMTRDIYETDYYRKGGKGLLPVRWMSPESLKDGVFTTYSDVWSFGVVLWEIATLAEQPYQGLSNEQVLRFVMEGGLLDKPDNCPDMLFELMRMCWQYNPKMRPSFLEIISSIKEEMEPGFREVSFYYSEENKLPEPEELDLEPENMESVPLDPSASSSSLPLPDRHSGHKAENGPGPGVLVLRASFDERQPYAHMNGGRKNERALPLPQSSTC

Row | IC50 [nM] | Structure (SMILES)
1 | 25 | COc1cc(N2CCN(C(=O)CO)CC2)ccc1Nc1ncc(Cl)c(-c2cnc3c(F)cccn23)n1 [Example 180, 1-[4-[4-[[5-chloro-4-(8-fluoroimidazo[1,2-a]pyridin-3-yl)pyrimidin-2-yl]amino]-3-methoxy-phenyl]piperazin-1-yl]-2-hydroxy-ethanone]
2 | 49 | CNCC(=O)N1CCN(c2ccc(OC)c(Nc3ncc(C)c(-c4cnn5ccccc45)n3)c2)CC1 [Example 167, 1-[4-[4-methoxy-3-[(5-methyl-4-pyrazolo[1,5-a]pyridin-3-yl-pyrimidin-2-yl)amino]phenyl]piperazin-1-yl]-2-(methylamino)ethanone]
3 | 20 | COc1cc(O[C@H]2CCN(C(C)=O)C2)ccc1Nc1ncc(Cl)c(-c2cnc3ccccn23)n1 [Example 13, 1-[(3S)-3-[4-[(5-chloro-4-imidazo[1,2-a]pyridin-3-yl-pyrimidin-2-yl)amino]-3-methoxy-phenoxy]pyrrolidin-1-yl]ethanone]
4 | 14 | COc1cc(N2CCN(CCC#N)CC2)ccc1Nc1ncc(Cl)c(-c2cnc3ccccn23)n1 [Example 49, 3-[4-[4-[(5-chloro-4-imidazo[1,2-a]pyridin-3-yl-pyrimidin-2-yl)amino]-3-methoxy-phenyl]piperazin-1-yl]propanenitrile]
5 | 1 | CNCC(=O)N1CCC(c2ccc(Nc3ncc(Cl)c(-c4cnc5c(F)cccn45)n3)c(OC)c2)CC1 [Example 182, 1-[4-[4-[[5-chloro-4-(8-fluoroimidazo[1,2-a]pyridin-3-yl)pyrimidin-2-yl]amino]-3-methoxy-phenyl]-1-piperidyl]-2-(methylamino)ethanone]
6 | 63 | COc1ccc(N2CCNCC2)cc1Nc1ncc(F)c(-c2cnn3ccccc23)n1 [Example 174, 5-fluoro-N-(2-methoxy-5-piperazin-1-yl-phenyl)-4-pyrazolo[1,5-a]pyridin-3-yl-pyrimidin-2-amine]
7 | 28 | COc1cc(N2CCN(CC(C)(C)O)CC2)ccc1Nc1ncc(C)c(-c2cnc3ccccn23)n1 [Example 106, 1-[4-[4-[(4-imidazo[1,2-a]pyridin-3-yl-5-methyl-pyrimidin-2-yl)amino]-3-methoxy-phenyl]piperazin-1-yl]-2-methyl-propan-2-ol]
8 | 7 | COc1cc(N2CCN(C(=O)[C@@H](C)N)CC2)ccc1Nc1ncc(Cl)c(-c2cnc3ccc(F)cn23)n1 [Example 252, (2R)-2-amino-1-[4-[4-[[5-chloro-4-(6-fluoroimidazo[1,2-a]pyridin-3-yl)pyrimidin-2-yl]amino]-3-methoxy-phenyl]piperazin-1-yl]propan-1-one]
9 | 49 | COc1ccc(N2CCN(C(=O)CN(C)C)CC2)cc1Nc1ncc(C)c(-c2cnn3ccccc23)n1 [Example 236, 2-(dimethylamino)-1-[4-[4-methoxy-3-[(5-methyl-4-pyrazolo[1,5-a]pyridin-3-yl-pyrimidin-2-yl)amino]phenyl]piperazin-1-yl]ethanone]
10 | 95 | COc1ccc(N2CC3CNCC(C2)O3)cc1Nc1ncc(Cl)c(-c2cnn3ccccc23)n1 [Example 189, 5-chloro-N-[2-methoxy-5-(9-oxa-3,7-diazabicyclo[3.3.1]nonan-7-yl)phenyl]-4-yrazolo[1,5-a]pyridin-3-yl-pyrimidin-2-amine]
11 | 24 | COc1cc(CN2CCC[C@@H](O)C2)ccc1Nc1ncc(Cl)c(-c2cnc3ccccn23)n1 [Example 21.12, (3R)-1-[[4-[(5-chloro-4-imidazo[1,2-a]pyridin-3-yl-pyrimidin-2-yl)amino]-3-methoxy-phenyl]methyl]piperidin-3-ol]
12 | 8 | COc1cc(N2CCN(CCO)CC2)c(C)cc1Nc1ncc(Cl)c(-c2cnc3ccccn23)n1 [Example 279, 2-[4-[4-[(5-chloro-4-imidazo[1,2-a]pyridin-3-yl-pyrimidin-2-yl)amino]-5-methoxy-2-methyl-phenyl]piperazin-1-yl]ethanol]
13 | 172 | COc1ccc(N2CCNCC2)cc1Nc1ncc(F)c(-c2cnc3ccccn23)n1 [Example 75, 5-fluoro-4-imidazo[1,2-a]pyridin-3-yl-N-(2-methoxy-5-piperazin-1-yl-phenyl)pyrimidin-2-amine]
14 | 20 | COc1cc(N2CCN(C(C)(C)CO)CC2)ccc1Nc1ncc(C)c(-c2cnn3ccccc23)n1 [Example 231, 2-[4-[3-methoxy-4-[(5-methyl-4-pyrazolo[1,5-a]pyridin-3-yl-pyrimidin-2-yl)amino]phenyl]piperazin-1-yl]-2-methyl-propan-1-ol]
15 | 25 | COc1cc(CC(CO)CO)ccc1Nc1ncc(Cl)c(-c2cnc3c(F)cccn23)n1 [Example 193, 2-[[4-[[5-chloro-4-(8-fluoroimidazo[1,2-a]pyridin-3-yl)pyrimidin-2-yl]amino]-3-methoxy-phenyl]methyl]propane-1,3-diol]
16 | 12 | COCC(=O)N1CCN(c2ccc(Nc3ncc(Cl)c(-c4cnc5ccccn45)n3)c(OC)c2)CC1 [Example 39, 1-[4-[4-[(5-chloro-4-imidazo[1,2-a]pyridin-3-yl-pyrimidin-2-yl)amino]-3-methoxy-phenyl]piperazin-1-yl]-2-methoxy-ethanone]
17 | 14 | COc1ccc(N2CCNCC2)cc1Nc1ncc(Cl)c(-c2cnn3ccccc23)n1 [Example 147, 5-chloro-N-(2-methoxy-5-piperazin-1-yl-phenyl)-4-pyrazolo[1,5-a]pyridin-3-yl-pyrimidin-2-amine]
18 | 13 | COc1cc(C2CCN(C(C)=O)CC2)ccc1Nc1ncc(C)c(-c2cnc3c(F)cccn23)n1 [Example 196, 1-[4-[4-[[4-(8-fluoroimidazo[1,2-a]pyridin-3-yl)-5-methyl-pyrimidin-2-yl]amino]-3-methoxy-phenyl]-1-piperidyl]ethanone]
19 | 6 | COc1cc(C2CCN(C(=O)N(C)CCO)CC2)ccc1Nc1ncc(Cl)c(-c2cnc3ccccn23)n1 [Example 58, 4-[4-[(5-chloro-4-imidazo[1,2-a]pyridin-3-yl-pyrimidin-2-yl)amino]-3-methoxy-phenyl]-N-(2-hydroxyethyl)-N-methyl-piperidine-1-carboxamide]
20 | 0.3 | COc1cc(N2CCCC2)ccc1Nc1ncc(Cl)c(-c2cnc3ccccn23)n1 [Example 3.44, 5-chloro-4-imidazo[1,2-a]pyridin-3-yl-N-(2-methoxy-4-pyrrolidin-1-yl-phenyl)pyrimidin-2-amine]
21 | 8 | COc1cc(C2CNC(=O)C2)ccc1Nc1ncc(Cl)c(-c2cnc3ccccn23)n1 (centres unmarked) [Example 3.24, 4-[4-[(5-chloro-4-imidazo[1,2-a]pyridin-3-yl-pyrimidin-2-yl)amino]-3-methoxy-phenyl]pyrrolidin-2-one]
22 | 17 | COc1cc(C2CCN(C(C)=O)C(C)C2)ccc1Nc1ncc(Cl)c(-c2cnc3ccccn23)n1 (centres unmarked) [Example 59.1, 1-[4-[4-[(5-chloro-4-imidazo[1,2-a]pyridin-3-yl-pyrimidin-2-yl)amino]-3-methoxy-phenyl]-2-methyl-1-piperidyl]ethanone]
23 | 36 | COc1cc(N2CC3CN(C(=O)[C@@H](N)CO)CC(C2)O3)ccc1Nc1ncc(Cl)c(-c2cnc3c(F)cccn23)n1 [Example 210, (2S)-2-amino-1-[7-[4-[[5-chloro-4-(8-fluoroimidazo[1,2-a]pyridin-3-yl)pyrimidin-2-yl]amino]-3-methoxy-phenyl]-9-oxa-3,7-diazabicyclo[3.3.1]nonan-3-yl]-3-hydroxy-propan-1-one]

From patent publication US20100105655A1, “NOVEL COMPOUNDS 515” (ASTRAZENECA AB, priority 2008, published 2010)
